T/C data for 20 molecules are collected here from PubChem BioAssay AID330 (DTP/NCI, 2004).

SMILES strings stand for the structures. Where “and” joins values, the source holds several entries; their conditions need not be identical. Equal values may be shown once. Toxic doses and inconclusive results are not listed.

For the experiment, the system named is P388 leukemia ip, CD2F1 mice, survival T/C. Put plainly: NCI In Vivo Anticancer Drug Screen. Data for tumor model P388 Leukemia (intraperitoneal) in CD2F1 (CDF1) mice. The conditions noted are these: endpoint: median survival time, higher = longer survival. In short, it runs like this:
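Mice carrying the transplanted tumor received test compound or vehicle. Survival was recorded in each group, and the value is the treated-group measurement divided by that of the vehicle-treated control group.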

Setting [1] is: dose: 50.0 mg/kg/injection, schedule: Q01DX001 (ip), vehicle: Klucel (hydroxypropylcellulose) (HPC).
Where [2] appears, read: dose: 100.0 mg/kg/injection, schedule: Q01DX001 (ip), vehicle: Klucel (hydroxypropylcellulose) (HPC).
Where [3] appears, read: dose: 30.0 mg/kg/injection, schedule: Q01DX005 (ip), vehicle: saline with Tween-80.
Setting [4] is: dose: 60.0 mg/kg/injection, schedule: Q01DX005 (ip), vehicle: saline with Tween-80.
Where [5] appears, read: dose: 50.0 mg/kg/injection, schedule: Q01DX009 (ip), vehicle: saline with Tween-80.
The mark [6] stands for this setting: dose: 100.0 mg/kg/injection, schedule: Q01DX009 (ip), vehicle: saline with Tween-80.
The mark [7] stands for this setting: dose: 100.0 mg/kg/injection, schedule: Q04DX003 (ip), vehicle: saline with Tween-80.
Setting [8] is: dose: 200.0 mg/kg/injection, schedule: Q04DX003 (ip), vehicle: saline with Tween-80.
The mark [9] stands for this setting: dose: 400.0 mg/kg/injection, schedule: Q04DX003 (ip), vehicle: saline with Tween-80.

Turning to `COC(=O)c1c(C(=O)OC)c(-c2cccc(Cl)c2)n2c1CCC2`, the T/C by setting is: (dose: 25.0 mg/kg/injection, schedule: Q01DX005 (ip), vehicle: saline with Tween-80) 98 % of control; (dose: 50.0 mg/kg/injection, schedule: Q01DX005 (ip), vehicle: saline with Tween-80) 100 % of control; (dose: 100.0 mg/kg/injection, schedule: Q01DX005 (ip), vehicle: saline with Tween-80) 100 % of control and 93 % of control; (dose: 200.0 mg/kg/injection, schedule: Q01DX005 (ip), vehicle: saline with Tween-80) 100 % of control.

As for `CC(C)CC(=O)CC(=O)C(C)(C)C.CC(C)CC(=O)CC(=O)C(C)(C)C.CC(C)CC(=O)CC(=O)C(C)(C)C.[Cr]`, the T/C is, setting by setting: (dose: 50.0 mg/kg/injection, schedule: Q01DX009 (ip), vehicle: distilled water + alcohol) 97 % of control; (dose: 100.0 mg/kg/injection, schedule: Q01DX009 (ip), vehicle: distilled water + alcohol) 107 % of control; (dose: 200.0 mg/kg/injection, schedule: Q01DX009 (ip), vehicle: distilled water + alcohol) 103 % of control.

`CC(COS(C)(=O)=O)OS(C)(=O)=O` (stereo unspecified): the T/C was 98 % of control under setting [1]; 93 % of control under setting [2]; 101 % of control (dose: 200.0 mg/kg/injection, schedule: Q01DX001 (ip), vehicle: Klucel (hydroxypropylcellulose) (HPC)).

Take `Oc1ccc(O)c2c1C1(Cl)C(Cl)=C(Cl)C2(Cl)C1(Cl)Cl`: the T/C is, setting by setting: (dose: 100.0 mg/kg/injection, schedule: Q04DX003 (ip), vehicle: other) 100 % of control; (dose: 200.0 mg/kg/injection, schedule: Q04DX003 (ip), vehicle: other) 104 % of control; (dose: 400.0 mg/kg/injection, schedule: Q04DX003 (ip), vehicle: other) 113 % of control.

Turning to `C[Si](C)(CCCNCCN)O[Si](C)(C)CCCNCCN`, the T/C is 104 % of control (dose: 15.0 mg/kg/injection, schedule: Q01DX005 (ip), vehicle: saline with Tween-80); 118 % of control under setting [3]; 94 % of control and 96 % of control under setting [4].

For the molecule `C/C=C1\C(=O)O[C@@]23C=C[C@H]4C(C(=O)OC)=CO[C@@H](O[C@H]12)[C@H]43`, the T/C is, setting by setting: (dose: 0.63 mg/kg/injection, schedule: Q01DX009 (ip), vehicle: Klucel (hydroxypropylcellulose) (HPC)) 100 % of control; (dose: 0.63 mg/kg/injection, schedule: Q01DX009 (ip), vehicle: saline) 98 % of control; (dose: 1.25 mg/kg/injection, schedule: Q01DX009 (ip), vehicle: Klucel (hydroxypropylcellulose) (HPC)) 100 % of control; (dose: 1.25 mg/kg/injection, schedule: Q01DX009 (ip), vehicle: saline) 98 % of control; (dose: 2.5 mg/kg/injection, schedule: Q01DX009 (ip), vehicle: Klucel (hydroxypropylcellulose) (HPC)) 98 % of control; (dose: 2.5 mg/kg/injection, schedule: Q01DX009 (ip), vehicle: saline) 100 % of control. For the same molecule, the T/C reads like this: (dose: 5.0 mg/kg/injection, schedule: Q01DX009 (ip), vehicle: Klucel (hydroxypropylcellulose) (HPC)) 100 % of control; (dose: 5.0 mg/kg/injection, schedule: Q01DX009 (ip), vehicle: saline) 98 % of control; (dose: 10.0 mg/kg/injection, schedule: Q01DX009 (ip), vehicle: saline) 104 % of control; (dose: 20.0 mg/kg/injection, schedule: Q01DX009 (ip), vehicle: saline) 113 % of control.

Regarding `CC1SCC(=O)N1c1nncs1` (stereo unspecified), the T/C (dose: 30.0 mg/kg/injection, schedule: Q01DX005 (ip), vehicle: Klucel (hydroxypropylcellulose) (HPC)) is 101 % of control and 104 % of control; the T/C (dose: 60.0 mg/kg/injection, schedule: Q01DX005 (ip), vehicle: Klucel (hydroxypropylcellulose) (HPC)) is 102 % of control and 106 % of control; the T/C (dose: 120.0 mg/kg/injection, schedule: Q01DX005 (ip), vehicle: Klucel (hydroxypropylcellulose) (HPC)) is 106 % of control and 123 % of control; the T/C (dose: 240.0 mg/kg/injection, schedule: Q01DX005 (ip), vehicle: Klucel (hydroxypropylcellulose) (HPC)) is 123 % of control; the T/C (dose: 480.0 mg/kg/injection, schedule: Q01DX005 (ip), vehicle: Klucel (hydroxypropylcellulose) (HPC)) is 162 % of control.

Regarding `c1ccc2c(c1)ncn2Sn1cnc2ccccc21`, the T/C runs as follows: (dose: 17.5 mg/kg/injection, schedule: Q01DX005 (ip), vehicle: Klucel (hydroxypropylcellulose) (HPC)) 102 % of control; (dose: 35.0 mg/kg/injection, schedule: Q01DX005 (ip), vehicle: Klucel (hydroxypropylcellulose) (HPC)) 118 % of control; (dose: 70.0 mg/kg/injection, schedule: Q01DX005 (ip), vehicle: Klucel (hydroxypropylcellulose) (HPC)) 104 % of control.

In the case of `O=S(=O)(C(c1ccc(Cl)cc1)c1ccc(Cl)cc1)C(Cl)(Cl)Cl`, the T/C runs as follows: (dose: 25.0 mg/kg/injection, schedule: Q01DX001 (ip), vehicle: Klucel (hydroxypropylcellulose) (HPC)) 108 % of control; under setting [1], 102 % of control; under setting [2], 102 % of control.

Consider `C=CCC(C(=O)O)C1(C(=O)O)CCCCCC1` (stereo unspecified), for which the T/C (dose: 100.0 mg/kg/injection, schedule: Q04DX002 (ip), vehicle: saline with Tween-80) was 94 % of control; the T/C (dose: 200.0 mg/kg/injection, schedule: Q04DX002 (ip), vehicle: saline with Tween-80) was 93 % of control; the T/C (dose: 400.0 mg/kg/injection, schedule: Q04DX002 (ip), vehicle: saline with Tween-80) was 92 % of control.

Take `CN(C)CCC1(C)OCCC2=C1Cc1ccccc12` (stereo unspecified): the T/C reads like this: under setting [5], 91 % of control; under setting [6], 99 % of control.

Consider `CCc1nc2cc(C)ncn2n1`, for which the T/C is 100 % of control (dose: 100.0 mg/kg/injection, schedule: Q04DX003 (ip), vehicle: saline); 96 % of control (dose: 200.0 mg/kg/injection, schedule: Q04DX003 (ip), vehicle: saline); 101 % of control (dose: 400.0 mg/kg/injection, schedule: Q04DX003 (ip), vehicle: saline).

For the molecule `CCOCN(COCC)C(C)Cc1ccccc1` (stereo unspecified), the T/C is, setting by setting: (dose: 3.13 mg/kg/injection, schedule: Q01DX009 (ip), vehicle: saline with Tween-80) 104 % of control; (dose: 6.25 mg/kg/injection, schedule: Q01DX009 (ip), vehicle: saline with Tween-80) 107 % of control; (dose: 12.5 mg/kg/injection, schedule: Q01DX009 (ip), vehicle: saline with Tween-80) 114 % of control; (dose: 25.0 mg/kg/injection, schedule: Q01DX009 (ip), vehicle: saline with Tween-80) 123 % of control.

With `COc1ccc(-c2cnc3c(N)nn(C)c3n2)cc1`, the T/C is 90 % of control under setting [7], 100 % of control under setting [8] and 105 % of control under setting [9].

Regarding `C=CCNC(=S)n1cnc(N)n1`, the T/C under setting [3] is 107 % of control; the T/C under setting [4] was 105 % of control and 108 % of control; the T/C (dose: 120.0 mg/kg/injection, schedule: Q01DX005 (ip), vehicle: saline with Tween-80) was 115 % of control and 96 % of control.

Consider `CCOc1ccc(-n2c(O)c(N=Nc3ccccc3OC)sc2=S)cc1`, for which the T/C is 97 % of control (dose: 50.0 mg/kg/injection, schedule: Q01DX005 (ip), vehicle: Klucel (hydroxypropylcellulose) (HPC)); 93 % of control (dose: 100.0 mg/kg/injection, schedule: Q01DX005 (ip), vehicle: Klucel (hydroxypropylcellulose) (HPC)); 95 % of control (dose: 200.0 mg/kg/injection, schedule: Q01DX005 (ip), vehicle: Klucel (hydroxypropylcellulose) (HPC)).

In the case of `NNC(=O)CCc1ccccc1Br`, the T/C is, setting by setting: under setting [5], 100 % of control and 90 % of control; (dose: 50.0 mg/kg/injection, schedule: Q04DX003 (ip), vehicle: saline with Tween-80) 104 % of control; under setting [6], 100 % of control; under setting [7], 90 % of control; (dose: 200.0 mg/kg/injection, schedule: Q01DX009 (ip), vehicle: saline with Tween-80) 95 % of control; under setting [8], 90 % of control.

With `CCCCCCCCC1OCN2CCCCC12` (stereo unspecified), the T/C runs as follows: (dose: 50.0 mg/kg/injection, schedule: Q01DX005 (ip), vehicle: saline) 108 % of control; (dose: 100.0 mg/kg/injection, schedule: Q01DX005 (ip), vehicle: saline) 102 % of control; (dose: 200.0 mg/kg/injection, schedule: Q01DX005 (ip), vehicle: saline) 100 % of control.

Regarding `CC(C)c1ccc(C2C3CCN2CC3)cc1` (stereo unspecified), for the setting “dose: 50.0 mg/kg/injection, schedule: Q01DX009 (ip), vehicle: saline”, the T/C was 91 % of control.

With `O=C(O)C1CC(=O)N(Cc2ccccc2)C1` (stereo unspecified), the T/C was 95 % of control under setting [7], 100 % of control under setting [8] and 100 % of control under setting [9].
